Test results as given in patent US20220107246A1, “NONCOVALENT TAGS AND RELATED METHODS FOR CYTOSOLIC DELIVERY OF MACROBIOMOLECULES” (University of Washington, priority 2019, published 2022).

Assays:
Type in all cases: cell-based
[1] = tested on: HeLa cells; test: Toxicity study of CB and cholesterol tag (CellTiter-Blue); settings: FIG. 14, HeLa cells
Experimental: Cytotoxicity of the tag was evaluated on HeLa cells. Briefly, cells were seeded in 96-well plates at 3,000 cells/well. CB, the tag, or tagged protein (BSA) was added at a series of concentrations from 10 μM to 3.3 nM. Untreated cells were used as control. After 48-h incubation, 10 μl of CellTiter-Blue reagent (Promega) was added to the wells and the culture was incubated for another 1 h. Cell viability was examined on a microplate reader (Tecan) at ex/em=560/590 nm and the toxicity was analyzed according to the manufacturer's protocol.

[2] = tested on: HeLa cells; test: Cancer cell viability upon treatment with cytochrome c (LIVE/DEAD); settings: Cyt c concentration of 2 μM for cell incubation
Experimental: (§1) HeLa cells were seeded onto glass-bottom dishes and cultured overnight. The cells were treated with cyt c (tagged or untagged) of various concentrations in culture media for 4 h, washed, and cultured in fresh media for another 48 h. Cell viability was measured using the dual-color LIVE/DEAD Viability/Cytotoxicity Kit following the manufacturer's instruction.

[3] = tested on: HeLa cells; test: Cyt c delivery and intracellular distribution (fluorescence imaging)
Excerpt: For a proof-of-principle application in therapeutic protein delivery, we selected cytochrome c (Cyt c), an intracellular signaling protein for apoptosis, as a model cargo molecule. To track Cyt c delivery and intracellular distribution, it was labeled with a fluorescent dye (AF488, green). Cell nucleic were counterstained by Hoechst 33258 (blue). […] This is expected because Cyt c is a highly water-soluble macromolecule (m.w. ˜12 kDa) that cannot diffuse through the cell membrane by itself. Instead, a minute amount of Cyt c was uptaken by cells but trapped in endosomes/lysosomes (not shown). […] This study proves the feasibility and potential of specific targeting of certain cell signaling nodes inside cells with protein drugs.
as §1

Molecule	biocompatibility [1]	cell viability [2]	intracellular fluorescence of AF488-labeled Cyt c [3]
CCOc1ccc(Nc2ccc(/C(=C3C=C/C(=[N+](/CC)Cc4cccc(S(=O)(=O)[O-])c4)C=C/3C)c3ccc(N(CC)Cc4cccc(S(=O)(=O)[O-])c4)cc3C)cc2)cc1.[Na+] [Coomassie blue]	biocompatible		
Cyt c alone: cytochrome c, intracellular signaling protein for apoptosis, m.w. ~12 kDa, untagged		no sign of toxicity	minor dotted intracellular green fluorescence
